Data: article PMC5770958, “Dual Action of Mexiletine and Its Pyrroline Derivatives as Skeletal Muscle Sodium Channel Blockers and Anti-oxidant Compounds: Toward Novel Therapeutic Potential” (Frontiers in Pharmacology, 2018)
Values joined by “and” are separate entries in the source; they are usually repeats but may differ in a detail not shown here. Equal values may be shown once. “Also recorded” adds a separate entry of the source. Read-outs that look alike come from different tables or passages of the source.

Tests used:
[1] = test system: skeletal-muscle sodium channels (NaV1.4); test: Voltage-clamp recordings of INa in single muscle fibers: tonic block and use-dependent block; assay type: cell-based, Rana Esculenta; details: for IC50: HP -100 mV to -20 mV; for BT/BUD (IC50 TB/IC50 UDB 10-Hz): ratio tonic to 10-Hz use-dependent block
[2] = test system: skeletal-muscle sodium channels (NaV1.4); test: Voltage-dependent block of INa at HP -140 and -70 mV (resting and inactivated state affinity); assay type: cell-based, Rana Esculenta; details: for IC50: 0.3-Hz; for Ki: computed from Kr, K-70 and h∞ curve, read-out: Inactivated state block, calculated Ki
From the text: The cut-end fiber was then bathed in an internal solution and mounted across three chamber partitions, which delineated four pools. Three strips of vaseline were applied over the fiber and carefully sealed to the fiber to reduce leakage. […] Four KCl/agar bridges electrodes connected the recording chamber to the voltage-clamp amplifier based on methods described by Hille and Campbell ([1976]). For recording sodium currents (INa), the solution in the pool A was replaced with the external solution and after about 10 min of equilibration the recordings were performed at 10°C. […] Particular care was taken to verify that no change occurred in the membrane area in pool A throughout the experiments. Sodium currents were recorded using an amplifier connected via a A/D and D/A Digidata 1,200 Interface (Axon) to a 486 DX2/66 personal computer and stored on the hard disk. The stimulation protocols and data acquisition were controlled by Clampex software (pClamp6; Axon Instruments, Foster City, CA, USA) (Mele et al., [2014]). The currents flowing in response to depolarizing command voltages were low pass filtered at 10 kHz (Frequency Devices, Haverhill, MA, USA), visualized on an oscilloscope and sampled at 20 kHz. When necessary, leak and capacities currents were subtracted by P/4 method. The acquired traces were analyzed offline using Clampfit software (pClamp6; Axon Instruments). […] The degree of use-dependent block was computed as the value of the steady-state INa, max at this point normalized to the current at the same point in the absence of drug. This parameter reflects the potency of the drug for blocking the channels under conditions of high-frequency stimulation (i.e., as occurs during myotonic action potential firing) (De Luca et al., [2003a],[b]). […] The concentration-dependence of the drug effect was calculated as the half-maximal blocking concentration (IC50) at −140 mV, which allowed calculation of the affinity constant for the resting state (Kr). […] The affinity constant of the drug for the inactivated channel (Ki) was the computed as described below. Steady-state inactivation (h∞) curves were determined by a cyclic protocol of pulse sequences. […] Muraglia et al., [2014]). All data were expressed as mean ± S.E.M. The IC50 values, in the various experimental conditions, were determined by using a non-linear least squares fit of the concentration-response curves to the following logistic equation: […] K is IC50; n is the logistic slope factor, and [drug] is the molar concentration of the compound (Talon et al., [2001]). […] Statistical significance of differences between pairs of mean values has been estimated by unpaired Student's t-test and considered significant for p < 0.05. Two-way ANOVA and Bonferroni post-hoc corrections have been used for multiple comparison of experimental data means. The statistical significance between IC50 values obtained from the fit was evaluated using a number of degrees of freedom equal to the total number of preparations determining each point of the curve minus the number of means determining the curve minus two for the free parameters. The measurements of ionization constants and lipophilicity were performed on a Sirius GLpKa analyzer for pH-metric pKa and LogP (Sirius Analytical Instruments Ltd-Forest Row-UK). Correlation analysis was evaluated by fitting the experimental data point to linear regression analysis. Nonlinear equation fitting and processing for data graphics were done by FigP Software (Biosoft, Cambridge, UK).

[3] = test system: skeletal-muscle sodium channels (NaV1.4); test: Steady-state inactivation (h∞) curves of sodium channels; assay type: cell-based, Rana Esculenta; details: for Shift in the h∞ curves toward more negative potentials: 10 μM; for Vh1/2: 10 μM drug
Experimental: Steady-state inactivation (h∞) curves were determined by a cyclic protocol of pulse sequences.
(§1) The h∞ curves have been fitted with a single Boltzmann, and the potential at which 50% of the sodium channels were inactivated (Vh1/2) was calculated at the inflection point of the curves. Statistical significance of differences between pairs of mean values has been estimated by unpaired Student's t-test and considered significant for p < 0.05. Two-way ANOVA and Bonferroni post-hoc corrections have been used for multiple comparison of experimental data means. The statistical significance between IC50 values obtained from the fit was evaluated using a number of degrees of freedom equal to the total number of preparations determining each point of the curve minus the number of means determining the curve minus two for the free parameters. The measurements of ionization constants and lipophilicity were performed on a Sirius GLpKa analyzer for pH-metric pKa and LogP (Sirius Analytical Instruments Ltd-Forest Row-UK). Correlation analysis was evaluated by fitting the experimental data point to linear regression analysis. Nonlinear equation fitting and processing for data graphics were done by FigP Software (Biosoft, Cambridge, UK).
Fig. S2: Steady-state inactivation (h∞) curves were determined by a cyclic protocol of pulse […]
duration, and a test pulse to -20 mV for 10ms; after a pause of 3 s, the sequence was repeated 18-20 times with the prepulse potential value increased each time in 5 mV steps. A more quantitative estimate of the absolute affinity constant for the inactivated state (Ki) was obtained from the voltage dependent distribution of the channels in the resting (h) and inactivated state (1-h) obtained from […]

[4] = test system: skeletal-muscle sodium channels (NaV1.4); test: Recovery from inactivation of drug-bound sodium channels; open channel block check; assay type: cell-based, Rana Esculenta; details: 3 and 10 μM
[5] = Ionization constants and lipophilicity (Sirius GLpKa analyzer); assay type: physicochemical; details: for pKa: amine group of the drugs; for logD: pH 7.4, calculated from LogP and pKa values, read-out: Log D7.4
Experimental: as §1

C2C12 cells [6] = test: Cyto-protective effect against H2O2-induced oxidative stress (CCK-8); assay type: cell-based, Murine; details: for Cyto-protective effect: C2C12, 300 μM H2O2, drug 0.1-30 μM, 2 h before H2O2 plus 6 h
Experimental: (§2) Murine C2C12 skeletal muscle cells were cultured in DMEM supplemented with 10% fetal bovine serum, 1% penicillin, 1% streptomycin and 1% glutamine and were maintained at 37°C in 5% CO2/95% air. Cells obtained by sub-confluent cultures (about 70%) were seeded in 96 multiwell plate at a density of approximately 4.5 × 10^3 cells per well. Eighteen hours after seeding, either the cytotoxic effect of H2O2, mexiletine, Me5, their tetramethyl-pyrroline derivatives, and PP2 or the potential protective effect of all above mentioned compounds and N-acetyl cysteine (NAC) against the H2O2-induced oxidative stress has been investigated. […] To evaluate the cyto-protective effect of the drugs, C2C12 cells were incubated with the test compounds 2 h before the application of H2O2 at 300 μM and 1 mM, and then maintained for additional 6h. Two hours before absorbance lecture, 10 μl of Cell Counting Kit-8 pure solution (CCK-8 Alexis Biochemicals) was added into each well. The CCK-8 solution contains the monosodium salt of [2-(2-methoxy-4-nitrophenyl)-3-(4-nitrophenyl)-5-(2,4-disulfophenyl)-2H-tetrazolium (WST-8), which is reduced by cellular dehydrogenases to give a yellow colored product (formazan) absorbing at 450 nm. The quantity of formazan dye is directly proportional to the number of viable cells. Absorbance was measured at 450 nm with a microplate spectrophotometer (Victor V31420-40, PerkinElmer). This assay was successfully used to investigate on the mechanism of ion channel-regulated cell proliferation in cell lines (Tricarico et al., [2013]).
Fresh stock solutions of the test compounds were made daily and diluted in DMEM as required. Only for the tetramethyl-pyrroline derivatives and PP2, stock solutions in DMSO were prepared and then diluted in DMEM. The maximal concentration of DMSO in the diluted solutions was <0.2%. As expected, 0.2% DMSO had no effect on cell survival (data not shown). Accordingly, cell viability in the presence of drugs was expressed as percent change with respect to the cell treated with vehicle alone, after proper subtraction of blank absorbance.

C2C12 cells [7] = test: Cell culture cytotoxicity assay (CCK-8), 8 h incubation; assay type: cell-based, Murine
Experimental: as §2, with “The CCK-8 solution contains the monosodium salt of [2-(2-methoxy-4-nitrophenyl)-3-(4-nitrophenyl)-5-(2,4-disulfophenyl)-2H-tetrazolium (WST-8), which is reduced by cellular dehydrogenases to give a yellow colored product (formazan) absorbing at 450 nm.” left out, “This assay was successfully used to investigate on the mechanism of ion channel-regulated cell proliferation in cell lines (Tricarico et al., [2013]).” left out
(§3) Fresh stock solutions of the test compounds were made daily and diluted in DMEM as required. […] Accordingly, cell viability in the presence of drugs was expressed as percent change with respect to the cell treated with vehicle alone, after proper subtraction of blank absorbance.
(§4) All data were expressed as mean ± S.E.M. The IC50 values, in the various experimental conditions, were determined by using a non-linear least squares fit of the concentration-response curves to the following logistic equation: Effect = −100/{1+(K/[drug])n}, where Effect is the percentage change of INa; −100 is the maximal percentage block of INa; K is IC50; n is the logistic slope factor, and [drug] is the molar concentration of the compound (Talon et al., [2001]). […] The h∞ curves have been fitted with a single Boltzmann, and the potential at which 50% of the sodium channels were inactivated (Vh1/2) was calculated at the inflection point of the curves. […]

[8] = as above; assay type: cell-based, Murine; details: mouse, C2C12 skeletal muscle cells, 8 h of incubation, read-out: Cytotoxic effect IC50
Experimental: as §2, with “The CCK-8 solution contains the monosodium salt of [2-(2-methoxy-4-nitrophenyl)-3-(4-nitrophenyl)-5-(2,4-disulfophenyl)-2H-tetrazolium (WST-8), which is reduced by cellular dehydrogenases to give a yellow colored product (formazan) absorbing at 450 nm.” left out, “This assay was successfully used to investigate on the mechanism of ion channel-regulated cell proliferation in cell lines (Tricarico et al., [2013]).” left out
as §3, §4

[9] = 0.3-Hz, 10°C, read-out: Tonic block IC50
[10] = 10-Hz trains, read-out: Use-dependent block 10-Hz IC50
[11] = HP -70 mV, read-out: Voltage-dependent block HP-70 mV IC50, K-70
[12] = HP -140 mV, resting state, read-out: Voltage-dependent block HP-140 mV IC50, Kr

SMILES	IC50 [1, 9] [µM]	IC50 [1, 10] [µM]	IC50 [2, 11] [µM]	IC50 [2, 12] [µM]	Ki [2] [µM]	logP [5]	pKa [5]	logD [5]	Cyto-protective effect (C2C12 cells [6])	other results
Cc1cccc(C)c1OC[C@H](C)N [S-Mex, reference compound]	127 ± 2.8	32 ± 7								
Cc1cccc(C)c1OCC(NC(=O)C1=CC(C)(C)NC1(C)C)C(C)C (stereo not drawn) [CI16, N-{1-[(2,6-dimethylphenoxy)methyl]-2-methylpropyl}-2,2,5,5-tetramethyl-2,5-dihydro-1H-pyrrole-3-carboxamide]	12.6 ± 0.2	0.6 ± 0.1	1.8 ± 0.4	7.7 ± 0.5	1.8	3.2 ± 0.3	8.53 ± 0.01	2.1 ± 0.1	remarkable cyto-protection; also recorded: a decrease in efficacy	Fold more potent than Me5, tonic block ([1]; Me5 ref De Luca et al., 2000): ~2 fold; Fold more potent than Me5, use-dependent block ([1]; Me5 ref De Luca et al., 2000): ~9 fold; BT/BUD (IC50 TB/IC50 UDB 10-Hz) [1]: 21; Shift in the h∞ curves toward more negative potentials [3]: 6.3 ± 1.1 mV; Vh1/2 [3]: -83.7±0.1 mV; Time constants for recovery from inactivation [4]: slowest time constants
OO [H2O2]										IC50 (C2C12 cells [7]; 8 h of incubation, read-out: Cytotoxic effect IC50): 292 ± 25 µM
Cc1cccc(C)c1OCC(C)N (stereo not drawn) [Mex, 2-(2,6-dimethylphenoxy)-1-amino-propanemethylethylamine, reference compound]	75.3 ± 8	23.6 ± 2.8	1.9 ± 0.2	148 ± 20	2				moderate, albeit significant, cyto-protective effect	R (IC50 of Mex / IC50 of compound), tonic block [1]: 1; R (IC50 of Mex / IC50 of compound), use-dependent block 10-Hz [1]: 1; IC50 at 8 h [8]: 775 ± 88 µM
CC(C)(C)n1nc(-c2ccc(Cl)cc2)c2c(N)ncnc21 [PP2]										Cytotoxicity compared with Mex and its analogs (C2C12 cells [7]; 10-100 μM): more cytotoxic than Mex and its analogs
Cc1cccc(C)c1OC[C@@H](C)N [R-Mex, reference compound]	74 ± 8	31 ± 8								
Cc1cccc(C)c1OCC(C)NC(=O)C1=CC(C)(C)NC1(C)C (stereo not drawn) [VM11, N-[2-(2,6-dimethylphenoxy)-1-methylethyl]-2,2,5,5-tetramethyl-2,5-dihydro-1H-pyrrole-3-carboxamide]	23.4 ± 0.9	2 ± 0.1	4.5 ± 0.1	15.5 ± 0.6	4.2	2.8 ± 0.1	8.5 ± 0.1	1.7 ± 0.1	remarkable cyto-protection; also recorded: maintained the same cyto-protection observed between 3 and 30 μM	BT/BUD (IC50 TB/IC50 UDB 10-Hz) [1]: 11.7 and 12; R (IC50 of Mex / IC50 of compound), use-dependent block 10-Hz ([1]; relative potency toward Mex, racemic form): 12; Shift in the h∞ curves toward more negative potentials [3]: 3.6 ± 1.1 mV; Vh1/2 [3]: -82±0.3 mV; Cell protection (C2C12 cells [6]; C2C12, 300 μM H2O2, drug 100 μM): 43.5 ± 2.03%
Cc1cccc(C)c1OCC(N)C(C)C (stereo not drawn) [Me5, 1-(2,6-dimethylphenoxy)-3-methyl-2-butanamine]						2.72 ± 0.02	8.97 ± 0.03	1.1 ± 0.1	moderate, albeit significant, cyto-protective effect	
